Converted amounts (≈) assume the structure as drawn. Where two headings read alike, the source gives them in different places.
Assays:
MRSA ATCC 43300 = test system: MRSA ATCC 43300
Procedure: (§1) A positive control of a row of just the bacteria and a negative control of only the medium were included for every plate tested.
(§2) The compounds along with standard antibiotics were serially diluted 2-fold across the 96-well plates. […] A sample of each culture was then diluted 40-fold in fresh MH broth (in presence and absence of Tween) and incubated at 37°C for 2 to 3 h.
For experiments in the presence of surfactant, 2% beractant (25 mg/ml) was added to the mid-log-phase cultures and mixed gently and added to all the 96-well plates. For experiments in the presence of serum, a mixture of 50% of human serum along with 50% MHB was prepared and used throughout the experiment.

E. faecalis ATCC 29212 = assay: microbe, parasite or virus in culture; conditions: n = 2
Procedure: as §1, §2

[1] = test system: MSSA S. aureus ATCC 25923; assay: microbe, parasite or virus in culture; conditions: n = 2
Procedure: as §1, §2

[2] = test system: S. aureus GISA NRS 2; ATCC 700698; assay: microbe, parasite or virus in culture; conditions: n = 2
Procedure: as §1, §2

S. pneumoniae ATCC 33440 = assay: microbe, parasite or virus in culture; conditions: n = 2
Procedure: as §1, §2

[3] = test system: S. pneumoniae ATCC 700677 (MDR); assay: microbe, parasite or virus in culture; conditions: n = 2
Procedure: as §1, §2

S. pyogenes ATCC 12344 = conditions: n = 2
Procedure: as §1, §2

MRSA = conditions: literature value; cited from earlier work
From the text: TABLE 1 Literature MIC values for tested antibiotics | column: MIC (µg/ml) (reference[s]) / MRSA

[4] = literature values, reference given; cited from earlier work
From the text: Other assay additives can affect MIC values. […] Plasma protein binding has been implicated as a major factor limiting the active free concentration of many clinically important antibiotics ([37][–][42]).

SMILES: CN[C@H](CC(C)C)C(=O)N[C@H]1C(=O)N[C@@H](CC(N)=O)C(=O)N[C@H]2C(=O)N[C@H]3C(=O)N[C@H](C(=O)N[C@H](C(=O)O)c4cc(O)cc(O)c4-c4cc3ccc4O)[C@H](O)c3ccc(c(Cl)c3)Oc3cc2cc(c3O[C@@H]2O[C@H](CO)[C@@H](O)[C@H](O)[C@H]2O[C@H]2C[C@](C)(N)[C@H](O)[C@H](C)O2)Oc2ccc(cc2Cl)[C@H]1O [Vancomycin, vancomycin]
- MIC (MRSA ATCC 43300; Corning NBS, MH + 2% LHB, 2% LS, n = 2): 0.5 to 1 µg/mL
- MIC (MRSA ATCC 43300; Corning NBS, MH + 2% LHB, 50% HS, n = 2): 0.5 to 1 µg/mL
- MIC (MRSA ATCC 43300; Corning NBS, MH + 2% LHB, no additive, n = 2): 1 µg/mL
- MIC (MRSA ATCC 43300; Corning NBS, MH + T80, 2% LS, n = 2): 0.25 to 0.5 µg/mL
- MIC (MRSA ATCC 43300; Corning NBS, MH + T80, 50% HS, n = 2): 1 µg/mL
- MIC (MRSA ATCC 43300; Corning NBS, MH, 2% LS, n = 2): 0.5 µg/mL (≈ 0.345 µM)
- MIC (MRSA ATCC 43300; Corning NBS, MH, 50% HS, n = 2): 0.25 to 0.5 µg/mL
- MIC (MRSA ATCC 43300; Corning PS, MH + 2% LHB, 2% LS, n = 2): 0.5 to 1 µg/mL
- MIC (MRSA ATCC 43300; Corning PS, MH + 2% LHB, 50% HS, n = 2): 0.5 to 1 µg/mL
- MIC (MRSA ATCC 43300; Corning PS, MH + 2% LHB, no additive, n = 2): 1 µg/mL
- MIC (MRSA ATCC 43300; Corning PS, MH + T80, 2% LS, n = 2): 0.5 to 2 µg/mL
- MIC (MRSA ATCC 43300; Corning PS, MH + T80, 50% HS, n = 2): 0.5 µg/mL
- MIC (MRSA ATCC 43300; Corning PS, MH, 2% LS, n = 2): 0.5 to 1 µg/mL
- MIC (MRSA ATCC 43300; Corning PS, MH, 50% HS, n = 2): 0.25 to 0.5 µg/mL
- MIC (MRSA ATCC 43300; Corning TC, MH + 2% LHB, 2% LS, n = 2): 0.5 to 1 µg/mL
- MIC (MRSA ATCC 43300; Corning TC, MH + 2% LHB, 50% HS, n = 2): 0.5 µg/mL
- MIC (MRSA ATCC 43300; Corning TC, MH + 2% LHB, no additive, n = 2): 0.5 µg/mL
- MIC (MRSA ATCC 43300; Corning TC, MH + T80, 2% LS, n = 2): 0.5 µg/mL
- MIC (MRSA ATCC 43300; Corning TC, MH + T80, 50% HS, n = 2): 0.5 to 1 µg/mL
- MIC (MRSA ATCC 43300; Corning TC, MH, 2% LS, n = 2): 0.25 to 1 µg/mL
- MIC (MRSA ATCC 43300; Corning TC, MH, 50% HS, n = 2): 0.25 to 0.5 µg/mL
- MIC (MRSA ATCC 43300; Corning flat NBS plate, MHB +0.002% T80, no further additive, n = 2): 1 µg/mL (≈ 0.69 µM)
- MIC (MRSA ATCC 43300; Corning flat NBS plate, MHB −T80, no additive, n = 2): 0.5 µg/mL (≈ 0.345 µM)
- MIC (MRSA ATCC 43300; Corning flat PS plate, MHB +0.002% T80, no further additive, n = 2): 1 to 2 µg/mL
- MIC (MRSA ATCC 43300; Corning flat PS plate, MHB −T80, no additive, n = 2): 0.5 µg/mL (≈ 0.345 µM)
- MIC (MRSA ATCC 43300; Corning flat TC plate, MHB +0.002% T80, no further additive, n = 2): 1 µg/mL (≈ 0.69 µM)
- MIC (MRSA ATCC 43300; Corning flat TC plate, MHB −T80, no additive, n = 2): 0.5 µg/mL (≈ 0.345 µM)
- MIC (MRSA ATCC 43300; Nunc U TC plate, MHB +0.002% T80, n = 2): 1 µg/mL (≈ 0.69 µM)
- MIC (MRSA ATCC 43300; Nunc U TC plate, MHB −T80, n = 2): 0.5 µg/mL (≈ 0.345 µM)
- MIC (MRSA ATCC 43300; Nunc flat PS plate, MHB +0.002% T80, n = 2): 1 µg/mL (≈ 0.69 µM)
- MIC (MRSA ATCC 43300; Nunc flat PS plate, MHB −T80, n = 2): 1 µg/mL (≈ 0.69 µM)
- MIC (MRSA ATCC 43300; Nunc flat TC plate, MHB +0.002% T80, n = 2): 1 µg/mL (≈ 0.69 µM)
- MIC (MRSA ATCC 43300; Nunc flat TC plate, MHB −T80, n = 2): 1 to 2 µg/mL
- MIC (MRSA ATCC 43300; Trek PS, MH + 2% LHB, 2% LS, n = 2): 0.25 to 0.5 µg/mL
- MIC (MRSA ATCC 43300; Trek PS, MH + 2% LHB, 50% HS, n = 2): 0.5 µg/mL
- MIC (MRSA ATCC 43300; Trek PS, MH + 2% LHB, no additive, n = 2): 0.25 µg/mL
- MIC (MRSA ATCC 43300; Trek PS, MH + T80, 2% LS, n = 2): 0.06 to 1 µg/mL
- MIC (MRSA ATCC 43300; Trek PS, MH + T80, 50% HS, n = 2): 0.25 to 0.5 µg/mL
- MIC (MRSA ATCC 43300; Trek PS, MH, 2% LS, n = 2): 0.03 µg/mL (≈ 0.0207 µM)
- MIC (MRSA ATCC 43300; Trek PS, MH, 50% HS, n = 2): 0.25 µg/mL (≈ 0.173 µM)
- MIC (MRSA ATCC 43300; Trek flat PS plate, MHB +0.002% T80, no further additive, n = 2): 1 µg/mL (≈ 0.69 µM)
- MIC (MRSA ATCC 43300; Trek flat PS plate, MHB −T80, no additive, n = 2): 0.5 to 1 µg/mL
- MIC (MRSA ATCC 43300; regardless of plate type or addition of T80): around 1 µg/ml
- MIC (E. faecalis ATCC 29212; Corning NBS, MHB +T80): 1 µg/mL (≈ 0.69 µM)
- MIC (E. faecalis ATCC 29212; Corning NBS, MHB -T80): 1 to 2 µg/mL
- MIC (E. faecalis ATCC 29212; Corning PS, MHB +T80): 1 µg/mL (≈ 0.69 µM)
- MIC (E. faecalis ATCC 29212; Corning PS, MHB -T80): 1 µg/mL (≈ 0.69 µM)
- MIC (E. faecalis ATCC 29212; Corning TC, MHB +T80): 1 µg/mL (≈ 0.69 µM)
- MIC (E. faecalis ATCC 29212; Corning TC, MHB -T80): 1 to 2 µg/mL
- MIC ([1]; Corning NBS, MHB +T80): 1 to 2 µg/mL
- MIC ([1]; Corning NBS, MHB -T80): 0.5 to 1 µg/mL
- MIC ([1]; Corning PS, MHB +T80): 1 to 2 µg/mL
- MIC ([1]; Corning PS, MHB -T80): 0.5 to 1 µg/mL
- MIC ([1]; Corning TC, MHB +T80): 1 µg/mL (≈ 0.69 µM)
- MIC ([1]; Corning TC, MHB -T80): 0.5 to 1 µg/mL
- MIC ([2]; Corning NBS, MHB +T80): 0.5 to 1 µg/mL
- MIC ([2]; Corning NBS, MHB -T80): 0.5 µg/mL (≈ 0.345 µM)
- MIC ([2]; Corning PS, MHB +T80): 0.5 to 1 µg/mL
- MIC ([2]; Corning PS, MHB -T80): 0.5 to 1 µg/mL
- MIC ([2]; Corning TC, MHB +T80): 0.5 µg/mL (≈ 0.345 µM)
- MIC ([2]; Corning TC, MHB -T80): 0.5 to 1 µg/mL
- MIC (S. pneumoniae ATCC 33440; Corning NBS, MHB +T80): 0.5 to 1 µg/mL
- MIC (S. pneumoniae ATCC 33440; Corning NBS, MHB -T80): 0.5 to 1 µg/mL
- MIC (S. pneumoniae ATCC 33440; Corning PS, MHB +T80): 1 µg/mL (≈ 0.69 µM)
- MIC (S. pneumoniae ATCC 33440; Corning PS, MHB -T80): 1 µg/mL (≈ 0.69 µM)
- MIC (S. pneumoniae ATCC 33440; Corning TC, MHB +T80): 1 µg/mL (≈ 0.69 µM)
- MIC (S. pneumoniae ATCC 33440; Corning TC, MHB -T80): 0.5 to 1 µg/mL
- MIC ([3]; Corning NBS, MHB +T80): 1 to 2 µg/mL
- MIC ([3]; Corning NBS, MHB -T80): 0.5 µg/mL (≈ 0.345 µM)
- MIC ([3]; Corning PS, MHB +T80): 1 µg/mL (≈ 0.69 µM)
- MIC ([3]; Corning PS, MHB -T80): 1 µg/mL (≈ 0.69 µM)
- MIC ([3]; Corning TC, MHB +T80): 0.5 to 1 µg/mL
- MIC ([3]; Corning TC, MHB -T80): 1 µg/mL (≈ 0.69 µM)
- MIC (S. pyogenes ATCC 12344; Corning NBS, MHB +T80): 0.125 to 0.25 µg/mL
- MIC (S. pyogenes ATCC 12344; Corning NBS, MHB -T80): 0.125 to 0.25 µg/mL
- MIC (S. pyogenes ATCC 12344; Corning PS, MHB +T80): 0.125 µg/mL (≈ 0.0863 µM)
- MIC (S. pyogenes ATCC 12344; Corning PS, MHB -T80): 0.125 µg/mL (≈ 0.0863 µM)
- MIC (S. pyogenes ATCC 12344; Corning TC, MHB +T80): 0.125 to 0.25 µg/mL
- MIC (S. pyogenes ATCC 12344; Corning TC, MHB -T80): 0.125 µg/mL (≈ 0.0863 µM)
- MIC (literature) (MRSA): 2 ([62]) µg/ml
- protein binding [4]: 55%

Reference: paper PMC6325200, “Effects of Microplate Type and Broth Additives on Microdilution MIC Susceptibility Assays” (Antimicrobial Agents and Chemotherapy, 2018)
